Among the data in patent publication US9969749B2, “Inhibitors of IRAK4 activity” (MERCK SHARP & DOHME CORP., priority 2014, dated 2018) are IC50 values, retold here.

Sequence of IRAK4 (Q9NWZ3 whole entry): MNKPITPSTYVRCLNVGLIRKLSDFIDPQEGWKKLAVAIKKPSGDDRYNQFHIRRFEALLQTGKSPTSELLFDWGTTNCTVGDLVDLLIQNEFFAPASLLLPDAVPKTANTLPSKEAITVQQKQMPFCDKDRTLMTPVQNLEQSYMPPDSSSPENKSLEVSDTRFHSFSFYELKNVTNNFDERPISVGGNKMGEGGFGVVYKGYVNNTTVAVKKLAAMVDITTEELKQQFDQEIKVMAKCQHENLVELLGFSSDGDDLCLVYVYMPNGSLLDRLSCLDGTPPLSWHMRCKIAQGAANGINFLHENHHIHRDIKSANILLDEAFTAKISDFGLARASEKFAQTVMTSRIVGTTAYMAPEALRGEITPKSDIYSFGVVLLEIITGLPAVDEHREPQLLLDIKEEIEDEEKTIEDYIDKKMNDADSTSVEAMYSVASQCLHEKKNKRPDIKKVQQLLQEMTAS

This assay addresses IRAK4 (Homo sapiens (Human), UniProt Q9NWZ3). Nature of the assay: IRAK4 Kinase Assay (IMAP fluorescence polarization). It counts as biochemical. Conditions: 0.5 nM GST tagged IRAK4, 100 μM ATP, 100 nM fluorescent peptide substrate RP7030, 30 minutes at 25° C. The procedure:
The kinase activity of IRAK4 is determined by its ability to catalyze the phosphorylation of a fluorescent polypeptide substrate. The extent of phosphorylation is measured using the IMAP technology (Molecular Devices) where the phosphorylated fluorescent substrate binds to the large M(III)-based nanoparticles which reduces the rotational speed of the substrate and thus increases its fluorescent polarization (FP).
20 μL reaction mixture contains 10 mM TriHCl, pH 7.2, 0.5 nM GST tagged IRAK4 (SignalChem), 100 nM fluorescent peptide substrate (RP7030, Molecular Devices), 100 μM ATP, 1 mM DDT, 1 mM MgCl2, and 0.01% Tween 20. The reaction is initiated by the addition of ATP. After incubation for 30 minutes at 25° C., 60 μL of Progressive IMAP Reagent (Molecular Devices) is added to stop the reaction. Change in RP7030's FP is determined by a FP reader (Analyst HT, LJL BioSystems).
A general note: Fluorescence polarisation rises when a labelled molecule tumbles more slowly, as on binding a larger partner.
`CN(C)C1CCC(Nc2ncnc3ccc(-c4ccccc4)cc23)CC1` (single isomer, unassigned) [Example 1-2, cis or trans-N,N-dimethyl-N′-(6-phenylquinazolin-4-yl)cyclohexane-1,4-diamine] showed an IC50 of 3160 nM.
Consider `CN(C)C1CCC(Nc2ncnc3ccc(-c4ccncc4)cc23)CC1` (single isomer, unassigned) [Example 1-3, cis or trans-N,N-dimethyl-N′-[6-(pyridin-4-yl)quinazolin-4-yl]cyclohexane-1,4-diamine], for which the IC50 came to 2290 nM.
The value for `CN(C)C1CCC(Nc2ncnc3ccc(-c4cccnc4)cc23)CC1` (single isomer, unassigned) [Example 1-4, cis or trans-N,N-dimethyl-N′-[6-(pyridin-3-yl)quinazolin-4-yl]cyclohexane-1,4-diamine] was 1610 nM; that for `CN(C)C1CCC(Nc2ncnc3ccc(-c4ccccc4)cc23)CC1` (single isomer, unassigned) [Example 1-5, cis or trans-N,N-dimethyl-N′-(6-phenylquinazolin-4-yl)cyclohexane-1,4-diamine] was 19 nM.
The value for `CN(C)C1CCC(Nc2ncnc3ccc(-c4ccncc4)cc23)CC1` (single isomer, unassigned) [Example 1-6, cis or trans-N,N-dimethyl-N′-[6-(pyridin-4-yl)quinazolin-4-yl]cyclohexane-1,4-diamine] was 11 nM; that for `CN(C)C1CCC(Nc2ncnc3ccc(-c4cccnc4)cc23)CC1` (single isomer, unassigned) [Example 1-7, cis or trans-N,N-dimethyl-N′-[6-(pyridin-3-yl)quinazolin-4-yl]cyclohexane-1,4-diamine] was 13 nM; that for `Cc1cc(-c2ccc3ncnc(N[C@H]4CC[C@H](N(C)C)CC4)c3c2)cnn1` [Example 1-1, Trans-N,N-dimethyl-N′-[6-(6-methylpyridazin-4-yl)quinazolin-4-yl]cyclohexane-1,4-diamine] was 27 nM.
`COc1cc(-c2ccc3ncnc(N[C@H]4CC[C@H](N(C)C)CC4)c3c2)ccn1` [Example 1-8, trans-N′-[6-(2-methoxypyridin-4-yl)quinazolin-4-yl]-N,N-dimethylcyclohexane-1,4-diamine] returned an IC50 of 25 nM.
As to `Cn1cc(-c2ccc3ncnc(N[C@H]4CC[C@H](N(C)C)CC4)c3c2)cn1` [Example 1-9, trans-N,N-dimethyl-N′-[6-(1-methyl-1H-pyrazol-4-yl)quinazolin-4-yl]cyclohexane-1,4-diamine], the IC50 was found to be 5 nM.
In turn, `CN(C)C1CCC(Nc2ncnc3ccc(-c4cn[nH]c4)cc23)CC1` (stereo not drawn) [Example 1-10, cis or trans-N,N-dimethyl-N′-[6-(1H-pyrazol-4-yl)quinazolin-4-yl]cyclohexane-1,4-diamine] came in with an IC50 of 1 nM.
Take `CN(C)C1CCC(Nc2ncnc3ccc(-c4ccc(N)nc4)cc23)CC1` (stereo not drawn) [Example 1-11, cis or trans-N′-[6-(6-aminopyridin-3-yl)quinazolin-4-yl]-N,N-dimethylcyclohexane-1,4-diamine]: the IC50 was 36 nM. This IC50 lies about 36-fold higher than the previous one.
For the compound `CN(C)[C@H]1CC[C@H](Nc2ncnc3ccc(-c4cc[nH]n4)cc23)CC1` [Example 1-12, trans-N,N-dimethyl-N′-[6-(1H-pyrazol-3-yl)quinazolin-4-yl]cyclohexane-1,4-diamine], the IC50 came out at 17 nM.
As for `CNc1ncc(-c2ccc3ncnc(N[C@H]4CC[C@H](N(C)C)CC4)c3c2)cn1` [Example 1-13, trans-N,N-dimethyl-N′-{6-[2-(methylamino)pyrimidin-5-yl]quinazolin-4-yl}cyclohexane-1,4-diamine], the IC50 worked out at 28 nM.
Compound `CCOC(C)n1cc(-c2ccc3ncnc(N[C@H]4CC[C@H](N(C)C)CC4)c3c2)cn1` (stereo partly drawn) [Example 1-14, trans-N′-{6-[1-(1-ethoxyethyl)-1H-pyrazol-4-yl]quinazolin-4-yl}-N,N-dimethylcyclohexane-1,4-diamine] showed an IC50 of 1360 nM.
Take `CN(C)[C@H]1CC[C@H](Nc2ncnc3ccc(-c4cnn(CCN5CCOCC5)c4)cc23)CC1` [Example 1-15, trans-N,N-dimethyl-N′-(6-{1-[2-(morpholin-4-yl)ethyl]-1H-pyrazol-4-yl}quinazolin-4-yl)cyclohexane-1,4-diamine]: the IC50 is 1320 nM.
Turning to `CN(C)[C@H]1CC[C@H](Nc2ncnc3ccc(-c4cnn(C5CCCCO5)c4)cc23)CC1` (stereo partly drawn) [Example 1-16, trans-N,N-dimethyl-N′-{6-[1-(tetrahydro-2H-pyran-2-yl)-1H-pyrazol-4-yl]quinazolin-4-yl}cyclohexane-1,4-diamine], it took 217 nM to reach half-maximal inhibition (IC50).
In turn, `CN(C)[C@H]1CC[C@H](Nc2ncnc3ccc(-c4cnn(Cc5ccccn5)c4)cc23)CC1` [Example 1-17, trans-N,N-dimethyl-N′-{6-[1-(pyridin-2-ylmethyl)-1H-pyrazol-4-yl]quinazolin-4-yl}cyclohexane-1,4-diamine] gave an IC50 of 372 nM.
For `CCn1cc(-c2ccc3ncnc(N[C@H]4CC[C@H](N(C)C)CC4)c3c2)cn1` [Example 1-18, trans-N′-[6-(1-ethyl-1H-pyrazol-4-yl)quinazolin-4-yl]-N,N-dimethylcyclohexane-1,4-diamine], it took 92 nM to reach half-maximal inhibition (IC50).
As to `CN(C)[C@H]1CC[C@H](Nc2ncnc3ccc(-c4cnn(Cc5ccncc5)c4)cc23)CC1` [Example 1-19, trans-N,N-dimethyl-N′-{6-[1-(pyridin-4-ylmethyl)-1H-pyrazol-4-yl]quinazolin-4-yl}cyclohexane-1,4-diamine], inhibition was half-maximal at 358 nM (IC50).
As for `CN(C)[C@H]1CC[C@H](Nc2ncnc3ccc(-c4ccncc4C#N)cc23)CC1` [Example 1-20, 4-(4-{[trans-4-(dimethylamino)cyclohexyl]amino}quinazolin-6-yl)pyridine-3-carbonitrile], the IC50 turned out to be 85 nM. This IC50 lies about 4.2-fold lower than the previous one.
Turning to `Cc1cnccc1-c1ccc2ncnc(N[C@H]3CC[C@H](N(C)C)CC3)c2c1` [Example 1-21, trans-N,N-dimethyl-N′-[6-(3-methylpyridin-4-yl)quinazolin-4-yl]cyclohexane-1,4-diamine], the midpoint of inhibition, the IC50, lay at 155 nM.
`CN(C)[C@H]1CC[C@H](Nc2ncnc3ccc(-c4cnccc4C#N)cc23)CC1` [Example 1-22, 3-(4-{[trans-4-(dimethylamino)cyclohexyl]amino}quinazolin-6-yl)pyridine-4-carbonitrile]: half-maximal inhibition (IC50) was put at 54 nM.
Turning to `CN(C)[C@H]1CC[C@H](Nc2ncnc3ccc(-c4cncc(N5CCOCC5)c4)cc23)CC1` [Example 1-23, trans-N,N-dimethyl-N′-{6-[5-(morpholin-4-yl)pyridin-3-yl]quinazolin-4-yl}cyclohexane-1,4-diamine], the IC50 came out at 498 nM.
Compound `Cc1noc(C)c1-c1ccc2ncnc(N[C@H]3CC[C@H](N(C)C)CC3)c2c1` [Example 1-24, trans-N′-[6-(3,5-dimethylisoxazol-4-yl)quinazolin-4-yl]-N,N-dimethylcyclohexane-1,4-diamine] had an IC50 of 333 nM. This IC50 and that of the compound before are within 1.5-fold of each other.
For the compound `CN(C)[C@H]1CC[C@H](Nc2ncnc3ccc(-c4cncnc4)cc23)CC1` [Example 1-25, trans-N,N-dimethyl-N′-[6-(pyrimidin-5-yl)quinazolin-4-yl]cyclohexane-1,4-diamine], the IC50 came out at 3 nM. This IC50 is about 110-fold lower than that of the compound before.
As for `Cc1onc(-c2ccccc2)c1-c1ccc2ncnc(N[C@H]3CC[C@H](N(C)C)CC3)c2c1` [Example 1-26, trans-N,N-dimethyl-N′-[6-(5-methyl-3-phenylisoxazol-4-yl)quinazolin-4-yl]cyclohexane-1,4-diamine], the IC50 is 698 nM.

For orientation: IC50 means the concentration at which inhibition is half-maximal. High values mean weaker potency in that assay, low ones greater potency in that assay.
